The data set deals with T1, human TLR7 (Homo sapiens, UniProt Q9NYK1).
T1 construct: host or cells: HEK-Blue TLR7 293 (TLR7-HEK-293)
T1 sequence (Q9NYK1 27-1049): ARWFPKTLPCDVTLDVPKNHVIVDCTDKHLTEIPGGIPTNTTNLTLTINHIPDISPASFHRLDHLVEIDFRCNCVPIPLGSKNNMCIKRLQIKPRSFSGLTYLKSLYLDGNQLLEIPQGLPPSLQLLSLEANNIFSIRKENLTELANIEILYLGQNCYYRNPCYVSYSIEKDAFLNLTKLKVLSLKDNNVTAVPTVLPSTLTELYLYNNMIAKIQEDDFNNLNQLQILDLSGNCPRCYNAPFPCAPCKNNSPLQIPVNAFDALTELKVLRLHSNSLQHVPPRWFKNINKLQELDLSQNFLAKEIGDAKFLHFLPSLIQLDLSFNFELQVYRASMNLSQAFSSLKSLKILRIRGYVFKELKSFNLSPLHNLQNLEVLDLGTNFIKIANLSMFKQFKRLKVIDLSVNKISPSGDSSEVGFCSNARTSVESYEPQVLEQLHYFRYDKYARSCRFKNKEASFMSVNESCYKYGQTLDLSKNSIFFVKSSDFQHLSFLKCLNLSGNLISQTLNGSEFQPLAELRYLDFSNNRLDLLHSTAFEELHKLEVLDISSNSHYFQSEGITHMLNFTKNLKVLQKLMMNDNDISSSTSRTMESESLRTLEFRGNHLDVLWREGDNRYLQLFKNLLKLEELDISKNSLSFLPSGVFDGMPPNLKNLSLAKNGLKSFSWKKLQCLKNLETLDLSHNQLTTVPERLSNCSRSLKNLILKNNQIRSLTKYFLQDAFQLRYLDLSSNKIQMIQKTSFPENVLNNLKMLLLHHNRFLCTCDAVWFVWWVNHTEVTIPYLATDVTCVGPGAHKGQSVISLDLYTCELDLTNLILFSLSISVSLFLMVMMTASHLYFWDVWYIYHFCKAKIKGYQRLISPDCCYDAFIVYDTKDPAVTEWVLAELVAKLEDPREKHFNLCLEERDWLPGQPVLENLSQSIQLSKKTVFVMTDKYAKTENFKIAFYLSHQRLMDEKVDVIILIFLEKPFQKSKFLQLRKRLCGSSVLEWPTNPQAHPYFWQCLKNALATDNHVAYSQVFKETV
In words: NF-κB reporter assay (QUANTI-Blue) in TLR7-HEK-293 cells. In kind it is cell-based. Conditions: Dotap formulations of miRNA. As to the method: To investigate whether miRNA-induced activation of TLRs also occurs in human cells, an NF-κB reporter assay was performed in HEK-293 cells. NF-κB, a transcription factor modulating the expression of several cytokine genes, is activated by several TLRs, including the only ssRNA-binding human TLRs, TLR7 and TLR8. Therefore, we treated HEK-293 cells expressing human TLR7 or TLR8 (hereafter, TLR7- and TLR8-HEK-293 cells, respectively) with Dotap alone or with Dotap formulations of miR-16, -21, -29a, or -147 and performed an NF-κB reporter assay. As positive controls Gardiquimod and ssRNA40 were used, specific agonists of TLR7 and TLR8, respectively. […] To confirm this conclusion, transfected were TLR8-HEK-293 cells with a plasmid encoding a dominant negative form of TLR8 (TLR8DN) and treated these cells with the miRNAs of interest. In TLR8DN cells, the activation of NF-κB by miR-21 and miR-29a was abolished (FIG. 3F). […] NF-κB activity was assessed by QUANTI-Blue Assay (Invivogen). […] Levels of SEAP can be easily determined with QUANTI-Blue, a detection medium that turns purple/blue in the presence of alkaline phosphatase. […] The plate was then incubated at 37° C. for 1-3 h and SEAP levels were determined by reading the plate with a spectrophotometer at 620-655 nm (SpectraMax, Molecular Devices).

For the substance “miR-147: synthetic mature miRNA (SEQ ID NO: 3), sequence similar to RNA33, Dotap formulation (GUGUGUGGAAAUGCUUCUGC; DOTAP formulation, further chemistry not given here)”, the NF-κB activation result is recorded as “only in TLR8-HEK-293 cells”.
